Test results published in PMC8861615, “Searching for plant-derived antivirals against dengue virus and Zika virus” (Virology Journal, 2022).
Entries after “also recorded” stand apart in the source; their conditions may differ. Where two headings read alike, the source gives them in different places.

Key:
DENV-2 [1] = assay: Anti-DENV-2 activity by viral CPE reduction and MTT method in BHK-21 cells; assay type: cell-based, Dengue virus serotype 2
Description: (§1) Plant extracts were screened for their cytotoxic and anti-ZIKV and anti-DENV activities in Vero cells and BHK-21, respectively, in 96-well culture plates by observing the reduction of the viral cytopathic effect (CPE) and then measured by the MTT method. The crude extracts were dissolved in 4% DMSO aqueous solution, and their concentration was normalized to 50 µg/ml with Eagle's minimum essential medium (MEM) supplemented with 2% fetal bovine serum (FBS). Briefly, 8 × 10^3 of BHK-21 cells or 1 × 10^4 of Vero cells per well were seeded in a 96-well plate and incubated for 24 h at 37 °C and 5% CO2 atmosphere. Extract solution and virus suspension, at a multiplicity of infection (m.o.i.) of 2, for both viruses, were simultaneously added on 70% confluent monolayers. Each extract was tested in duplicate. Controls of untreated infected and untreated uninfected cells incubated with or without DMSO were included. Interferon-α 2B, in concentrations of 500 and 1000 IU/mL, was used as a positive antiviral control in all antiviral assays. […] Briefly, the supernatants were removed, and 30 µl of a stock solution of MTT (2 mg/ml) dissolved in phosphate-buffered saline were added to each well. After 90 min of incubation at 37 °C, 130 µl of DMSO were added to each well, and plates were homogenized for 5 min at 500 rpm. The absorbance values of each reaction were measured in an ELISA reader (Spectra Max, Molecular Devices, USA) at λ540 nm. […] Cytotoxicity (CC50) and anti-ZIKV/DENV-2 (CE50) experiments were performed in duplicate and repeated at least three times.
(§2) Viral CPE and cell viability were observed by optic microscopy and measured by the MTT method as previously described. […] The experiments were performed in duplicate and repeated at least three times.
(§3) Bioassay data were normalized to untreated uninfected cells and the EC50 and CC50 values were obtained using GraphPad Prism 5 based on nonlinear logistic regression of the experimental dose–response curves. […] The CC50 and EC50 values ratio was used as a selectivity index (SI).

ZIKV [2] = assay: microbe, parasite or virus in culture; assay type: cell-based, Zika virus; settings: for ZIKV EC50 (µM) / EC50: compounds, Vero cells, MTT
Description: as §1, §2, §3

BHK-21 cells = assay: Cytotoxicity (CC50) by MTT method in BHK-21 cells; assay type: cell-based, Hamster; settings: for CC50: compounds, MTT
Description: (§4) Compounds and selected extracts that tested positive for anti-ZIKV or anti-DENV-2 activity at the screening step had their CC50 determined by using an 8‐point dose range in 96 well microplate containing Vero or BHK-21 cell monolayers. Cell viability was observed by optic microscopy and measured by the MTT method as described. The experiments were performed in duplicate and repeated at least three times.
(§5) Bioassay data were normalized to untreated uninfected cells and the EC50 and CC50 values were obtained using GraphPad Prism 5 based on nonlinear logistic regression of the experimental dose–response curves. The values correspond to three independent assays' average and standard deviation with at least 8 sample distinct concentrations. The CC50 and EC50 values ratio was used as a selectivity index (SI). The extracts and compounds with higher SI values were considered the most promising and selected for further investigation if available in sufficient quantities.

Vero cells = assay: Cytotoxicity (CC50) by MTT method in Vero cells; assay type: cell-based; settings: for CC50: compounds, MTT
Description: as §4, §5

DENV-2 [3] = assay: Virucidal activity by plaque reduction assay, DENV in BHK-21 cells; assay type: cell-based, Dengue virus serotype 2; settings: compounds
Description: (§6) The virucidal activity of extracts and compounds against ZIKV and DENV was assessed by plaque reduction assay in Vero and BHK-21 cells, respectively, in 24 well microplates. […] Virus suspension without the extract/compound was included as a control. Surviving infectious viral particles were assessed by viral plaque formation assay. Briefly, the infected monolayers were overlaid with 1.5% carboxymethyl cellulose containing MEM with 2% FBS and incubated for five days. After that, cell monolayers were fixed with 10% formaldehyde and stained with 1% crystal violet 1% in an 30% ethanol aqueous solution.

ZIKV [4] = assay: Virucidal activity by plaque reduction assay, ZIKV in Vero cells; assay type: cell-based, Zika virus; settings: compounds
Description: as §6

[5] = Cytotoxicity (CC50) by MTT method in BHK-21 cells; assay type: cell-based, Hamster; settings: hamster, compounds, MTT
Description: as §4, §5

[6] = Cytotoxicity (CC50) by MTT method in Vero cells; assay type: cell-based; settings: African green monkey, compounds, MTT
Description: as §4, §5

[7] = Dengue virus, DENV2, BHK-21, read-out: DENV-2 EC50 (µM)
[8] = compounds, BHK-21 cells, MTT, read-out: DENV-2 EC50

Compound	DENV-2 EC50 (µM) (DENV-2 [1]; compounds, BHK-21 cells, MTT)	CC50 (BHK-21 cells) [µM]	CC50 (Vero cells) [µM]	DENV-2 Virucidal activity (DENV-2 [3])	ZIKV Virucidal activity (ZIKV [4])	EC50 (ZIKV [2]) [µM]	further results
CC(=O)O[C@H]1[C@H]2c3cc4c(cc3CN3CCC(=C[C@@H]1OC(C)=O)[C@H]23)OCO4 [1,2-diacetyl-lycorine]	no antiviral activity; also recorded: Inactive	> 100	> 100	No	No	–	ZIKV EC50 (µM) (ZIKV [2]): Inactive
CC(=O)O[C@H]1[C@H]2c3cc4c(cc3CN3CCC(=C[C@@H]1O)[C@H]23)OCO4 [1-acetyl-lycorine]	no antiviral activity; also recorded: Inactive	7.8	19.8	No	No	19.3	–
O[C@H]1[C@H]2c3cc4c(cc3CN3CCC(=C[C@@H]1O)[C@H]23)OCO4 [Lycorine]	–	–	–	No	No	–	EC50 (DENV-2 [1]; [7]): 0.5 µM; EC50 (ZIKV [2]; Zika virus): 0.9 µM; CC50 [5]: 4.3 µM; CC50 [6]: 3.4 µM
O=C1NC2C(=C[C@H](O)[C@@H](O)[C@H]2OC2OCC(O)C(O)C2O)c2cc3c(c(O)c21)OCO3 (stereo partly drawn) [Narciclasine-4-O-β-D-xylopyranoside, narciclasine-4-O-β-D-xylopyranoside]	–	39.3	51.8	No	No	7.9	EC50 (DENV-2 [1]; [8]): 7.9 µM; Times less toxic than narciclasine in BHK-21 cells (BHK-21 cells; ratio versus narciclasine): 430 times; Times less toxic than narciclasine in Vero cells (Vero cells; ratio versus narciclasine): 430 times
O=C1N[C@@H]2C(=C[C@H](O)[C@@H](O)[C@H]2O)c2cc3c(c(O)c21)OCO3 [Narciclasine]	–	–	–	No	No	0.02	EC50 (DENV-2 [1]; [8]): 0.02 µM; Active concentration against DENV-2, times less than lycorine (DENV-2 [1]; ratio versus lycorine): 25 times; Active concentration against DENV-2, times less than pretazettine (DENV-2 [1]; ratio versus pretazettine): 40 times; Active concentration against ZIKV, times less than lycorine (ZIKV [2]; ratio versus lycorine): 45 times; Active concentration against ZIKV, times less than pretazettine (ZIKV [2]; ratio versus pretazettine): 95 times
CO[C@@H]1C=C[C@@]23c4cc5c(cc4C(O)O[C@H]2CN(C)[C@H]3C1)OCO5 (stereo partly drawn) [Pretazettine]	–	–	–	No	No	–	EC50 (DENV-2 [1]; [7]): 0.8 µM; EC50 (ZIKV [2]; Zika virus): 1.9 µM; CC50 ([5]; BHK-21 cell monolayers): 5.4 µM; CC50 ([6]; Vero cell monolayers): 7.2 µM
C[C@@H]1O[C@@H](OC[C@H]2O[C@@H](Oc3c(-c4ccc(O)c(O)c4)oc4cc(O)cc(O)c4c3=O)[C@H](O)[C@@H](O)[C@@H]2O)[C@H](O)[C@H](O)[C@H]1O [Rutine]	no antiviral activity; also recorded: Inactive	> 300	> 300	No	–	–	ZIKV EC50 (µM) (ZIKV [2]): no antiviral activity; also recorded: Inactive
